Data on eleven molecules can be found in ChEMBL document CHEMBL2424516, “Facile synthesis of novel quinoline derivatives as anticancer agents” (2013).

The source made the active and inactive calls. The rule behind the calls is not given here.

The test system of test [1] is HeLa. Description: Cytotoxicity against human HeLa cells by SRB assay. In kind it is functional. (In general: Sulforhodamine B stains cellular protein and so reports cell mass.)
In test [2] the test system is MCF7. Put plainly: Cytotoxicity against human MCF7 cells by SRB assay. It is filed as functional. The settings on record: for CC50: read-out: LC50 (the source's name).
The subject of test [3] is Escherichia coli. Description: Induction of Escherichia coli DNA cleavage at 100 ug after 2 hrs by agarose gel electrophoresis.

The term GI50 denotes the concentration that inhibits growth by half. Read a low GI50 as more potent growth inhibition. The term TGI denotes the concentration giving total growth inhibition. The low end stands for greater sensitivity of the cells, the high end for lower sensitivity of the cells. In the case of `CC(=O)NC1=NN(C(C)=O)C(c2cc3cc(C)ccc3n3nnnc23)S1` (centres undefined), in test [1], the GI50 worked out at 81.3 µM, the LC50 (concentration killing 50% of cells) was > 100 µM and the TGI was > 100 µM. For the same molecule, in test [2], the GI50 was > 100 µM, the TGI was > 100 µM and the CC50 is > 100 µM. In addition, the outcome in test [3] was Active.
As for `COc1cccc2c1C(=O)c1c(O)c3c(c(O)c1C2=O)C[C@@](O)(C(=O)CO)C[C@@H]3O[C@H]1C[C@H](N)[C@H](O)[C@H](C)O1` [DOXORUBICIN], in test [1], the GI50 is < 0.1 µM and the TGI is > 0.1 µM. In test [2], the GI50 is < 0.1 µM, the TGI is > 0.1 µM and the CC50 was > 100 µM.
Consider `COc1cccc2cc(C3SC(NC(C)=O)=NN3C(C)=O)c3nnnn3c12` (centres undefined), for which, in test [1], the GI50 is > 100 µM, the LC50 (concentration killing 50% of cells) was > 100 µM and the TGI was > 100 µM. Besides, in test [2], the GI50 was > 100 µM, the TGI was > 100 µM and the CC50 was > 100 µM. In test [3], the outcome was Active.
Consider `CC(=O)NC1=NN(C(C)=O)C(c2cc3ccc(C)cc3n3nnnc23)S1` (centres undefined), for which, in test [1], halving of growth (GI50) required 83.3 µM, the LC50 (concentration killing 50% of cells) is > 100 µM and the TGI is > 100 µM. In addition, in test [2], halving of growth (GI50) required 98.9 µM, the TGI was > 100 µM and the CC50 is > 100 µM.
Consider `CC(=O)NC1=NN(C(C)=O)C(c2cc3cc(Cl)ccc3n3nnnc23)S1` (centres undefined), for which, in test [1], the GI50 is < 0.1 µM, the LC50 (concentration killing 50% of cells) is > 100 µM and the TGI was > 100 µM. Moreover, in test [2], the GI50 was > 100 µM, the TGI was > 100 µM and the CC50 is > 100 µM. Also, the outcome in test [3] was Active.
For `COc1cc2cc(C3SC(NC(C)=O)=NN3C(C)=O)c3nnnn3c2cc1OC` (centres undefined), in test [1], the GI50 is > 100 µM, the LC50 (concentration killing 50% of cells) is > 100 µM and the TGI was > 100 µM. In addition, in test [2], the GI50 was > 100 µM, the TGI was > 100 µM and the CC50 was > 100 µM. Also, the outcome in test [3] was Active.
In the case of `COc1ccc2cc(C3SC(NC(C)=O)=NN3C(C)=O)c3nnnn3c2c1` (centres undefined), in test [1], the GI50 is > 100 µM, the LC50 (concentration killing 50% of cells) was > 100 µM and the total growth inhibition concentration (TGI) was > 100 µM. In test [2], the GI50 was > 100 µM, the TGI is > 100 µM and the CC50 was > 100 µM. Moreover, in test [3], the result was Active.
Regarding `CC(=O)NC1=NN(C(C)=O)C(c2cc3cc(Br)ccc3n3nnnc23)S1` (centres undefined), in test [1], the GI50 is < 0.1 µM, the LC50 (concentration killing 50% of cells) is > 100 µM and the TGI was > 100 µM. Further, in test [2], the GI50 was > 100 µM, the TGI was > 100 µM and the CC50 is > 100 µM. Also, the result in test [3] was Active.
With `CC(=O)NC1=NN(C(C)=O)C(c2cc3ccccc3n3nnnc23)S1` (centres undefined), in test [1], the GI50 is > 100 µM, the LC50 (concentration killing 50% of cells) was > 100 µM and the TGI is > 100 µM. In test [2], the GI50 is > 100 µM, the TGI was > 100 µM and the CC50 was > 100 µM. In test [3], the result was Active.
Regarding `CC(=O)NC1=NN(C(C)=O)C(c2cc3cccc(C)c3n3nnnc23)S1` (centres undefined), in test [1], the GI50 was 85.1 µM, the LC50 (concentration killing 50% of cells) is > 100 µM and the TGI was > 100 µM. In test [2], the GI50 turned out to be 95.3 µM, the TGI is > 100 µM and the CC50 is > 100 µM. In addition, the outcome in test [3] was Active.
Take `COc1ccc2c(c1)cc(C1SC(NC(C)=O)=NN1C(C)=O)c1nnnn12` (centres undefined): in test [1], the GI50 was > 100 µM, the LC50 (concentration killing 50% of cells) is > 100 µM and the TGI was > 100 µM. In test [2], the GI50 is > 100 µM, the TGI was > 100 µM and the CC50 was > 100 µM. Besides, the result in test [3] was Active.
